Square brackets hold non-standard residues; d marks the D form. Ends that are not written are not given here. pGlu = O=C1CC[C@@H](C(=O)O)N1

The experiment deals with mouse ADAMTS7. The experiment is described as follows: TMT10 TAILS N-terminomics, SMC1 experiment (Ad-mADAMTS7 WT vs EQ vs Luc, technical replicates, trypsin digest). The experiment is classed as cell-based. The settings on record: TAILS neo-N-terminal peptide abundance; log fold change, Ad-mADAMTS7 WT over EQ. The gist of the method:
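Full-length mouse ADAMTS7 (WT or E373Q mutant, C-terminal 3xFLAG) or luciferase was transduced via adenovirus, 50 MOI, into HCA-SMC (SMC1, SMC2) or HUVEC. SMC1: pooled media, technical triplicates 400 ug; SMC2: process triplicates 300 ug; HUVEC: process triplicates 200 ug, bFGF2 10 ng/ml.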
The substance “HEG1_49 (GAGLELQLER; listed as Homo sapiens)” came in with a logFC.mWT.over.mEQ of 1.20.

“HLA−C_52 (VDDTQFVR; listed as Homo sapiens)” gave a logFC.mWT.over.mEQ of 0.78. To “HSPG2_275 (LLPGSVR; listed as Homo sapiens)” belongs 2.49.

With “HSPG2_1937 (SSAGQQVAR; listed as Homo sapiens)”, the logFC.mWT.over.mEQ is given as 0.94. To “HSPG2_2331 (ANLAYPAGSTQPIR; listed as Homo sapiens)” belongs 2.04. For “HSPG2_2333 (LAYPAGSTQPIR; listed as Homo sapiens)” the value was 1.92; for “HSPG2_2688 (VADSGEYVCR; listed as Homo sapiens)”, 3.02.

“HSPG2_3250 (SPLPWQHR; listed as Homo sapiens)” showed a logFC.mWT.over.mEQ of 1.01. For “HSPG2_3542 (IAHVELADAGQYR; listed as Homo sapiens)” the value was 0.67; for “HSPG2_3647 ([pGlu]GKVKAFAHLQVPER; listed as Homo sapiens)”, 1.22; for “HSPG2_3672 (SFLPLPTIKDAYR; listed as Homo sapiens)”, 1.03.

The substance “HSPG2_3813 (SSGFIGCVR; listed as Homo sapiens)” gave a logFC.mWT.over.mEQ of 1.09. For “HSPG2_4004 (SAEPLALGR; listed as Homo sapiens)” the value was 1.25; for “HSPG2_4021 (LNKDGSLR; listed as Homo sapiens)”, 0.73.

In turn, “HSPG2_4075 (GCVGEVSVNGKR; listed as Homo sapiens)” displayed a logFC.mWT.over.mEQ of 0.75.

As to “HSPG2_4133 (DGFKGDLCEHEENPCQLR; listed as Homo sapiens)”, the logFC.mWT.over.mEQ was found to be 0.76.

For “HTRA1_33 (LAAGCPDR; listed as Homo sapiens)”, the logFC.mWT.over.mEQ is listed as 2.78. Take “IFI30_43 (YKTGNLYLR; listed as Homo sapiens)”: the logFC.mWT.over.mEQ stood at 3.19. For “IGFBP3_31 (SAGLGPVVR; listed as Homo sapiens)” the value was 2.49.

In turn, “IGFBP3_32 (AGLGPVVR; listed as Homo sapiens)” had a logFC.mWT.over.mEQ of 3.78. For “IGFBP3_200 (FSSESKR; listed as Homo sapiens)” the value was 2.41; for “IGFBP7_101 (AAGGPGVSGVCVCKSR; listed as Homo sapiens)”, 3.69.

Consider “LASP1_123 (HEEFEKSR; listed as Homo sapiens)”, for which the logFC.mWT.over.mEQ came to 1.40. To “LGALS1_53 (HGDANTIVCNSKDGGAWGTEQR; listed as Homo sapiens)” belongs 3.89; to “LGALS3BP_447 (FQAPSDYR; listed as Homo sapiens)”, 4.13. To “LOXL1_219 (VASAGVIYPYQPR; listed as Homo sapiens)” belongs 1.09; to “LOXL2_37 (FQQPAPEYHQPQAPANVAKIQLR; listed as Homo sapiens)”, 3.28; to “LOXL2_38 ([code q]QPAPEYHQPQAPANVAKIQLR; not fully specified; listed as Homo sapiens)”, 1.26. As to “LOXL2_318 (AYKPEQPLVR; listed as Homo sapiens)”, the logFC.mWT.over.mEQ is listed as 0.78.

For the substance “LOX_58 (LSLGSQYQPQR; listed as Homo sapiens)”, the logFC.mWT.over.mEQ is 0.99. For “LOX_80 (ANASAQQPR; listed as Homo sapiens)” the value was 2.18; for “LOX_81 (NASAQQPR; listed as Homo sapiens)”, 1.69. To “LOX_123 (HWFQAGYSTSR; listed as Homo sapiens)” belongs 1.82; to “LOX_124 (WFQAGYSTSR; listed as Homo sapiens)”, 3.62. For “LOX_126 (QAGYSTSR; listed as Homo sapiens)” the value was 1.59.

In the case of “LTBP1_393 (LTATNFR; listed as Homo sapiens)”, the logFC.mWT.over.mEQ is 3.89.

Turning to “LTBP1_494 (SVQIHQVSR; listed as Homo sapiens)”, the logFC.mWT.over.mEQ is given as 2.63. For “LTBP1_540 (HQQVIPHVYPVAAKTQLGR; listed as Homo sapiens)” the value was 2.70; for “LTBP1_546 (HVYPVAAKTQLGR; listed as Homo sapiens)”, 4.67. The substance “LTBP2_485 (SVQIHQVAQVR; listed as Homo sapiens)” showed a logFC.mWT.over.mEQ of 2.23. To “LTBP2_533 (SGEPPRPLPPAAPR; listed as Homo sapiens)” belongs 1.06. Consider “LTBP2_677 (SLGPGTCTLPLAQR; listed as Homo sapiens)”, for which the logFC.mWT.over.mEQ turned out to be 0.85. For “LTBP2_760 (SSGALPGPAER; listed as Homo sapiens)” the value was 1.24. For “LTBP2_1023 (GKCTNLEGSFR; listed as Homo sapiens)” the value was 0.71; for “LTBP2_1371 (SGQKGHAPCSSVLGR; listed as Homo sapiens)”, 0.93; for “LTBP2_1560 (TTYTECCCQDGEAWSQQCALCPPR; listed as Homo sapiens)”, 0.71. For “LTBP2_1584 (SSEVYAQLCNVAR; listed as Homo sapiens)” the value was 1.08.

(Values after patent publication US20240368668A1, “SUBSTRATES AND BIOMARKERS OF ADAMTS7” (The Broad Institute, Inc., priority 2021, published 2024).)
